Laboratory results published in patent publication US4430427A, “Red absorbing combination of alcohol oxidase and an azide compound” (Phillips Petroleum Company, priority 1980, dated 1984).
Read-outs that look alike come from different tables or passages of the source.

Key:
[1] = molecular target: T1, purified Pichia alcohol oxidase (Komagataella phaffii, UniProt F2QY27); test: biochemical; assay type: biochemical, Pichia pastoris
T1 construct: saturated solution of purified Pichia alcohol oxidase; endogenous in cells
T1 sequence (F2QY27 2-663 limits assumed): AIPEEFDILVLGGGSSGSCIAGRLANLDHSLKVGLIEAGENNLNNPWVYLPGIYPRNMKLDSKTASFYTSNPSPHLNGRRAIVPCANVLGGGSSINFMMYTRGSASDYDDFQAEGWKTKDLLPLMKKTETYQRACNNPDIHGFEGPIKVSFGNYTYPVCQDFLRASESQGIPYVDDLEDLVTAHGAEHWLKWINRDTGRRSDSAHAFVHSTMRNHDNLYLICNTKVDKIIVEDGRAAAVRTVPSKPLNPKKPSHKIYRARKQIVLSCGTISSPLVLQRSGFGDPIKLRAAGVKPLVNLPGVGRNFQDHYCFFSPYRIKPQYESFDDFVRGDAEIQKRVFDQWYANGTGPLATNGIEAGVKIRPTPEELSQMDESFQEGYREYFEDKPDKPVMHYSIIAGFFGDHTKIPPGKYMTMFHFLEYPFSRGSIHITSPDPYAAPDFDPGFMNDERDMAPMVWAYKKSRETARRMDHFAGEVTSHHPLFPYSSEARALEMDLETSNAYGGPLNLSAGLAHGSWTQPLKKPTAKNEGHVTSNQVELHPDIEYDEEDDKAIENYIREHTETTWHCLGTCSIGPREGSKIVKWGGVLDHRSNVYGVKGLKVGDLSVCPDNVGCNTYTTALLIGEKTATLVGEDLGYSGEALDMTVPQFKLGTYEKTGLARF
Description: A series of solutions were prepared by combining 3.9 mL standard phosphate buffer (pH 7.5) having NaN3 (g/l) as set forth in Table 8, 15 μL saturated solution of purified Pichia alcohol oxidase, and 50 μL methanol solution (% V/V in H2 O). Reaction velocity V (rate of methanol oxidation in the presence of alcohol oxidase) was monitored by a dissolved oxygen probe by following oxygen consumption (oxygen is consumed as alcohol substrate, S, is oxidized in the presence of the enzyme).

Pichia alcohol oxidase [2] = molecular target: T2, Pichia alcohol oxidase (Komagataella phaffii, UniProt F2QY27); conditions: crude enzyme saturated with salt crystals; assayed 1-2 minutes later
T2 sequence (F2QY27 2-663 limits assumed): T1 sequence (F2QY27 2-663 limits assumed)
Description: The alcohol oxidase activity for reaction with methanol was determined by the following assay procedure (dye-peroxidase method). A dye-buffer mixture was prepared by mixing 0.1 mL of an o-dianisidine solution (1 weight % o-dianisdine in water) with 12 mL of aerated 0.1 M sodium phosphate buffer (pH 7.5). The assay mixture was prepared with 2.5 mL of the dye-buffer mixture, 50 μL of methanol, 10 μL of a peroxidase solution (1 mg of horse-radish peroxidase-Sigma, Type II), and 25 μL of the alcohol oxidase solution. The assay mixture was maintained at 25° C. in a 4×1×1 cm cuvette and the increase in absorbance by the dye at 460 nm was recorded for 2 to 4 minutes. The enzyme activity was calculated by [formula] wherein 11.5 is a factor based on a standard curve prepared with known aliquots of H2 O2 and ΔA is the change in absorbance during the experimental interval.

Pichia alcohol oxidase [3] = molecular target: T2, Pichia alcohol oxidase
Description: The samples are allowed to stand at room temperature for 15 minutes. Color and enzyme activity are monitored at that time.

[4] = molecular target: Hansenula polymorpha alcohol oxidase (Pichia angusta, UniProt P04841); conditions: 1 mL crude Hansenula polymorpha enzyme preparation, a few crystals (one mg)
Description: Fermentation effluent from the aerobic fermentation of Hansenula polymorpha (prepared as described in Example II) was adjusted to pH 7.5 with concentrated ammonium hydroxide. Sample was homogenized and disrupted on a Dyno-Mill Model KDL using a 0.6 L vessel in a continuous operation at 30° C. using belt combination #3 and a flow of 20-30 mL/hr. The beads were lead-free glass beads with a diameter of 0.3-0.5 mm. The resulting homogenate was centrifuged for 20 minutes at 10,000×g to yield a cell-free supernatant.
One mL of this crude enzyme preparation was mixed with a few crystals (qualitative--one mg) of NaN3 is a test tube.

alcohol oxidase = alcohol oxidase (Komagataella phaffii, UniProt F2QY27)
Description: 3 mL of purified enzyme containing 3 mg/mL enzyme (crystallized as described in Example I) were placed in a 1-cm quartz cuvette. The solution was scanned from 350-550 nm.
where [formula] ΔA522 =change in absorbance at 522 nm upon NaN3 addition, and
ΔA522^max =total change in absorbance at 522 nm upon saturation of enzyme solution with NaN3.

Chain of Hansenula polymorpha alcohol oxidase (P04841 2-664 limits assumed): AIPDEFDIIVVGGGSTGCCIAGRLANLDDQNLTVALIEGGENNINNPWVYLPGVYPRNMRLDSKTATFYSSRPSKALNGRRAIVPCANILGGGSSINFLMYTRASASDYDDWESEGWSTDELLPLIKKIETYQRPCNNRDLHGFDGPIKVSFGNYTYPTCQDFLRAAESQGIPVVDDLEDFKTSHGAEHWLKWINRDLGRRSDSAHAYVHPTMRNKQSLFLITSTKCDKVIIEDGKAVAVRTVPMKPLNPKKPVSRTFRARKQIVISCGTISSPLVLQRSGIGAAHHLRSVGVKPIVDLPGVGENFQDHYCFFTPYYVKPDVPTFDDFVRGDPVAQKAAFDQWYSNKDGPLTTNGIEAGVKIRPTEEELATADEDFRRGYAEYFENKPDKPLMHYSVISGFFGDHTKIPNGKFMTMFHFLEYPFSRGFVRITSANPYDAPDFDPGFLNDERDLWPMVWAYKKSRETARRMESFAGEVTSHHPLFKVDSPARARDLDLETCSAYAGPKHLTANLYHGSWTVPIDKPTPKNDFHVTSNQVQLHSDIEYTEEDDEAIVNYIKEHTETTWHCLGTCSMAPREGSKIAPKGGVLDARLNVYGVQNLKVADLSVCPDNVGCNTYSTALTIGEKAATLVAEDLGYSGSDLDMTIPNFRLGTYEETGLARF

CO [methanol]
Kd ([1]; estimated from 1/V vs 1/[S] plots, pH 7.5, read-out: binding constant for methanol substrate, KS): 600 µM

O=P([O-])([O-])O.[Na+].[Na+] [Na2 HPO4]
Relative Enz. Act. (Pichia alcohol oxidase [2]): 4

O=P([O-])(O)O.[Na+] [NaH2 PO4]
Relative Enz. Act. (Pichia alcohol oxidase [2]): 0

[Cl-].[K+] [KCl]
Relative Enz. Act. (Pichia alcohol oxidase [2]): 2

N#CS [KSCN]
EU/mL* at 15 min. (Pichia alcohol oxidase [3]): 25 EU/mL

[Cl-].[Cl-].[Mg+2] [MgCl2]
Relative Enz. Act. (Pichia alcohol oxidase [2]): 0

[N-]=[N+]=[N-].[Na+] [NaN3, sodium azide]
Color on mixing with crude enzyme preparation [4]: Red color forms upon mixing
Color at 15 min. (Pichia alcohol oxidase [3]; a few crystals (about 1 mg) added to 1 mL purified enzyme solution, room temperature): Red immediately
EU/mL* at 15 min. (Pichia alcohol oxidase [3]; a few crystals (about 1 mg) added to 1 mL purified enzyme solution, room temperature, 15 min): 75 EU/mL
1/V ([1]; NaN3 .0001 g/l, MeOH .004 M): .0488
1/V ([1]; NaN3 .0001 g/l, MeOH .016 M): .04
1/V ([1]; NaN3 .0002 g/l, MeOH .0005 M): .2632
1/V ([1]; NaN3 .0002 g/l, MeOH .001 M): .1429
1/V ([1]; NaN3 .0002 g/l, MeOH .002 M): .0725
1/V ([1]; NaN3 .0002 g/l, MeOH .004 M): .0588
1/V ([1]; NaN3 .0002 g/l, MeOH .008 M): .0455
1/V ([1]; NaN3 .0002 g/l, MeOH .016 M): .0377
1/V ([1]; NaN3 .0005 g/l, MeOH .0005 M): .625
1/V ([1]; NaN3 .0005 g/l, MeOH .001 M): .4
1/V ([1]; NaN3 .0005 g/l, MeOH .002 M): .1667
1/V ([1]; NaN3 .0005 g/l, MeOH .004 M): .1111
1/V ([1]; NaN3 .0005 g/l, MeOH .008 M): .0813
1/V ([1]; NaN3 .0005 g/l, MeOH .016 M): .0602
1/V ([1]; NaN3 .001 g/l, MeOH .001 M): 1
1/V ([1]; NaN3 .001 g/l, MeOH .002 M): .333
1/V ([1]; NaN3 .001 g/l, MeOH .004 M): .1667
1/V ([1]; NaN3 .001 g/l, MeOH .008 M): .111
1/V ([1]; NaN3 .001 g/l, MeOH .016 M): .0645
Ki ([1]; estimated from 1/V vs 1/[S] plots, pH 7.5, read-out: binding constant for NaN3 inhibitor, Ki): 6 µM
type of inhibition ([1]; from 1/V vs 1/[S] plots): linear, mixed-type inhibition
fractional saturation, .PHI. (alcohol oxidase; Excess (solid crystals) NaN3): 1.000
fractional saturation, .PHI. (alcohol oxidase; Moles N3^-/Moles Enzyme 1.15): .167
fractional saturation, .PHI. (alcohol oxidase; Moles N3^-/Moles Enzyme 1.54): .207
fractional saturation, .PHI. (alcohol oxidase; Moles N3^-/Moles Enzyme 1.92): .259
fractional saturation, .PHI. (alcohol oxidase; Moles N3^-/Moles Enzyme 2.31): .309
fractional saturation, .PHI. (alcohol oxidase; Moles N3^-/Moles Enzyme 3.02): .407
fractional saturation, .PHI. (alcohol oxidase; Moles N3^-/Moles Enzyme 3.85): .475
fractional saturation, .PHI. (alcohol oxidase; Moles N3^-/Moles Enzyme 4.61): .525
fractional saturation, .PHI. (alcohol oxidase; Moles N3^-/Moles Enzyme 5.38): .580
fractional saturation, .PHI. (alcohol oxidase; Moles N3^-/Moles Enzyme 6.25): .630
fractional saturation, .PHI. (alcohol oxidase; Moles N3^-/Moles Enzyme 6.92): .679
fractional saturation, .PHI. (alcohol oxidase; Moles N3^-/Moles Enzyme .38): .062
fractional saturation, .PHI. (alcohol oxidase; Moles N3^-/Moles Enzyme .77): .105
number of azide binding sites (extrapolation of the stoichiometric line to the baseline) (alcohol oxidase; plot of .PHI. vs ligand/enzyme mole ratio): 7.6 moles of azide per mole of enzyme

O=P([O-])(O)O.[K+] [KH2 PO4]
Relative Enz. Act. (Pichia alcohol oxidase [2]): 0

[Cl-].[Li+] [LiCl]
Relative Enz. Act. (Pichia alcohol oxidase [2]): 0

CC(=O)O [NaAc]
Relative Enz. Act. (Pichia alcohol oxidase [2]): 4

[Cl-].[Na+] [NaCl]
Relative Enz. Act. (Pichia alcohol oxidase [2]): 1
